Legend:
[1] = molecular target: Adenosine receptors; A1 & A3 (Homo sapiens) (UniProt P30542+P0DMS8); test: Selectivity ratio of Ki for human adenosine A1 receptor to Ki for human adenosine A3 receptor
[2] = species on record: Homo sapiens; test: Selectivity ratio of Ki for human adenosine A2A receptor to Ki for human adenosine A3 receptor
[3] = molecular target: T1, Adenosine receptor A3 (Homo sapiens, UniProt P0DMS8); test: Binding affinity to human adenosine A3 receptor
T1 sequence (P0DMS8 whole entry): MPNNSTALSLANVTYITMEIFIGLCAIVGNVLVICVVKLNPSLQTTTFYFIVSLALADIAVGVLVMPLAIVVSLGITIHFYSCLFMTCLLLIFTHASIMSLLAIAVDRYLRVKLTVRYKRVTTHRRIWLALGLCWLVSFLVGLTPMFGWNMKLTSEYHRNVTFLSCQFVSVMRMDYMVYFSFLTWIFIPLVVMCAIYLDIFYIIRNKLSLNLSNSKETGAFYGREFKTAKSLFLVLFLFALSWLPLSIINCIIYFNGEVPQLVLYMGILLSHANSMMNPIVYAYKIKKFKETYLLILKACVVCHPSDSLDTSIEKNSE

[4] = molecular target: T2, Adenosine receptor A1 (Homo sapiens, UniProt P30542); test: Binding affinity to human adenosine A1 receptor
T2 sequence (P30542 whole entry): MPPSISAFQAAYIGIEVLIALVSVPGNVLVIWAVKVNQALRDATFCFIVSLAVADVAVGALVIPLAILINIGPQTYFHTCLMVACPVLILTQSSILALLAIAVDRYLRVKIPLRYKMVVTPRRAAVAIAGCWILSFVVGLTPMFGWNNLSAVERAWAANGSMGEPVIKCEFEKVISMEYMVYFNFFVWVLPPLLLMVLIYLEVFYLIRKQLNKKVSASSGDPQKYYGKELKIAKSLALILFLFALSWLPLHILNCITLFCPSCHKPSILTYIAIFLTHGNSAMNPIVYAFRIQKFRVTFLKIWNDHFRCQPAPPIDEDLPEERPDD

[5] = molecular target: Adenosine receptor A2a (Homo sapiens, UniProt P29274); test: Binding affinity to human adenosine A2A receptor
Adenosine receptor A2a, sequence (P29274 whole entry): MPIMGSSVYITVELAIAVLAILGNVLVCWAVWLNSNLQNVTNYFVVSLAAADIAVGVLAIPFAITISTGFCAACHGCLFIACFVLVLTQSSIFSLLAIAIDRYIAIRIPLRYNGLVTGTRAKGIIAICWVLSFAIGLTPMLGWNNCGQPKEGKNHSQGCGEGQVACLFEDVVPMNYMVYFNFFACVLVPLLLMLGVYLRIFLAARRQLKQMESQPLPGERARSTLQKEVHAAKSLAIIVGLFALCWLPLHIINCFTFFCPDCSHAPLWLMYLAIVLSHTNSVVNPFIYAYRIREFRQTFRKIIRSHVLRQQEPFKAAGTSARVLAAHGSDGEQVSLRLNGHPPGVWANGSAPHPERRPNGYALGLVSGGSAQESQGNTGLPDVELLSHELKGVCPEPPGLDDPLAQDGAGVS

Which Ratio Ki [1] does the source give for `CNC(=O)[C@H]1O[C@@H](n2cnc3c(NC)nc(C#Cc4ccccc4)nc32)[C@H](O)[C@@H]1O` here?
The Ratio Ki was 85.

What about the Ratio Ki [2] of the same compound?
The Ratio Ki was 115.

Which Ki ([3]; read-out: pKi (converted)) does the source give for `CONc1nc(C#Cc2ccccc2)nc2c1ncn2[C@@H]1O[C@H](CO)[C@@H](O)[C@H]1O` here?
The Ki was 3.98 nM.

`CNC(=O)[C@H]1O[C@@H](n2cnc3c(NC)nc(C#Cc4ccc(C(C)=O)cc4)nc32)[C@H](O)[C@@H]1O` was tested. Which Ki ([3]; read-out: pKi (converted)) did it give?
The Ki was 0.331 nM.

And the Ratio Ki [1]?
The Ratio Ki was 30900.

What about the Ratio Ki [2] of the same compound?
The Ratio Ki was 21300.

With `CNC(=O)[C@H]1O[C@@H](n2cnc3c(NC)nc(C#Cc4ccccn4)nc32)[C@H](O)[C@@H]1O` as the compound, how does the Ratio Ki [1] read?
Its Ratio Ki is 21800.

What about the Ratio Ki [2] of the same compound?
Its Ratio Ki is 60800.

How did the Ratio Ki [1] turn out when `CNC(=O)[C@H]1O[C@@H](n2cnc3c(NC)nc(C#Cc4ccc(F)cc4)nc32)[C@H](O)[C@@H]1O` was run?
The Ratio Ki was 12400.

What about the Ratio Ki [2] of the same compound?
Its Ratio Ki is 29500.

With `CNC(=O)[C@H]1O[C@@H](n2cnc3c(N)nc(C#Cc4ccccc4)nc32)[C@H](O)[C@@H]1O` as the compound, how does the Ki [4] read?
Its Ki is 3920 nM.

What about the Ki [5] of the same compound?
Its Ki is 1760 nM.

And the Ki ([3]; read-out: Ki)?
Its Ki is 7.3 nM.

Reference: ChEMBL document CHEMBL1275355, “Molecular modeling study on potent and selective adenosine A(3) receptor agonists” (Bioorg Med Chem, 2010)
